Data set [1] deals with pepsin (artificial gastric juice). The data set can be described thus: In vitro stability against digestive enzymes, artificial gastric juice. The following applies: for Ratio of recovery: after pepsin in 0.1 N HCl, 37° C., 4 hr, HPLC peak area, before treatment = 100. Type of data set: in vitro ADME. The procedure:
(§1) In vitro stability test against digestive enzymes was conducted on the peptide (VVYP) having the amino acid sequence shown in SEQ ID NO: 1 synthesized in Example 2 and peptides Val-Tyr-Pro (VYP) and Val-Thr-Leu (VTL) synthesized in the same manner as described in Example 2.
(§2) Briefly, to 127.5 ml of 0.1 N HCl solution of the above VVYP, VYP or VTL, 22.5 ml of 0.67 mg/ml pepsin (artificial gastric juice) dissolved in 0.1 N HCl was added and reacted at 37° C. for 4 hr. Thereafter, 75 ml of 0.53 mg/ml pancreatin (artificial pancreatic juice) dissolved in […] of 0.5 N borate buffer (pH 8.0) was added thereto and reacted at 37° C. for 2 hr. Samples before digestion with artificial gastric juice, after digestion with artificial gastric juice, and after digestion with artificial pancreatic juice were analyzed under the following conditions.
(§3) Equipment used: HPLC (Waters; LC Modulel)
(§4) Column: SuperPac Pep-S, 5 μm (PHARMACIA K.K.)
(§5) Mobile phase A: 0.1% trifluoroacetic acid B: Acetonitrile-water (50:50, containing 0.1% tri-fluoroacetic acid)
(§6) Flow rate: 0.8 ml/min (VYP, VTL), 0.4 ml/min (VVYP)
(§7) Detection wavelength: 220 nm
(§8) Temperature: room temperature
(§9) Amount applied: 20 μl of 50-fold dilution

A further data set relates to serum TG levels. As to the kind of experiment: Serum TG elevation inhibiting action, peptide given 1 hr after olive oil. The format is in vivo, male ICR mice. The following applies: for ID50 (dose which inhibits in vivo 50% of serum TG elevations): olive oil 18 g/kg oral, peptide oral 1 hr later, serum TG another 1 hr later; for Specific Activity (ratio to mg protein): relative to globin proteolysate (GD) = 1, Table 3. The procedure:
Subsequently, serum TG elevation inhibiting action was examined as described below on the peptide (VVYP) having the amino acid sequence shown in SEQ ID NO: 1 synthesized in Example 2, peptides Val-Tyr-Pro (vYP) and Val-Thr-Leu (VTL) synthesized in the same manner as described in Example 2, and the globin proteolysate (GD) obtained in the Reference Example.
Olive oil (18 g/kg body weight) was administered orally to male ICR mice (6 week old, body weight: 25-28 g) which fasted for an overnight. One hour thereafter, an aqueous solution of the above peptide (0.3 ml/mouse) was administered orally. […] A dose-response curve was obtained from the dose of the peptide and inhibition rate of TG, and the 50% inhibition dose ID50 was calculated. Then, the activity of individual peptides was compared with each other.

In data set [2] the test system is pancreatin (artificial pancreatic juice). As to the kind of experiment: In vitro stability against digestive enzymes, artificial gastric juice then artificial pancreatic juice. The settings on record: for HPLC peak of the peptide after digestion: after digestion with artificial gastric and pancreatic juices; for Ratio of recovery: after pepsin 37° C. 4 hr, then pancreatin pH 8.0, 37° C., 2 hr, HPLC peak area, before treatment = 100. Type of data set: in vitro ADME. The procedure:
as §1, §2, §3, §4, §5, §6, §7, §8, §9

For a further data set, the system named is male and female ICR mice. As to the kind of experiment: Toxicological study, oral administration. Type of data set: in vivo. The following applies: 10 g/kg body weight or more (maximum possible dose). How it is done: The peptide (VVYP) having the amino acid sequence shown in SEQ ID NO: 1 synthesized in Example 2 was administered orally to male and female ICR mice in an amount of 10 g/kg body weight or more (maximum possible dose).

Residues, ends and D or L forms follow the SMILES beside them.

Consider `CC(C)C[C@H](NC(=O)[C@@H](NC(=O)[C@@H](N)C(C)C)[C@@H](C)O)C(=O)O` [VTL, Val-Thr-Leu] (H-Val-Thr-Leu-OH), for which, in data set [1] (after digestion with artificial gastric juice), the “HPLC peak of the peptide after digestion” value is “disappeared”. In addition, in the data set on serum TG levels, the “ID50 (dose which inhibits in vivo 50% of serum TG elevations)” value stood at 0.05 mg protein/mouse and the “Specific Activity (ratio to mg protein)” value is on record as 448.
Take `CC(C)[C@H](N)C(=O)N[C@@H](Cc1ccc(O)cc1)C(=O)N1CCC[C@H]1C(=O)O` [VYP, Val-Tyr-Pro] (H-Val-Tyr-Pro-OH): in data set [1], the Ratio of recovery was determined as 108. Also, in the data set with serum TG levels, the “ID50 (dose which inhibits in vivo 50% of serum TG elevations)” value turned out to be 0.02 mg protein/mouse and the “Specific Activity (ratio to mg protein)” value was 1130. In data set [2], the “HPLC peak of the peptide after digestion” value was “remained” and the Ratio of recovery worked out at 109.
Take `CC(C)[C@H](N)C(=O)N[C@H](C(=O)N[C@@H](Cc1ccc(O)cc1)C(=O)N1CCC[C@H]1C(=O)O)C(C)C` [VVYP, Val-Val-Tyr-Pro] (H-VVYP-OH): the Ratio of recovery in data set [1] came to 108. Also, in the data set on serum TG levels, the “Specific Activity (ratio to mg protein)” value is given as 6500. In data set [2], the “HPLC peak of the peptide after digestion” value was “remained” and the Ratio of recovery is 101. Also, the Death entry in the data set with male and female ICR mice is reported as “no death occurred”.

Source of the values: US5958885A, “Peptide and formulations thereof inhibiting elevations of triglyceride levels in blood” (Hankyu Kyoei Bussan Co., Ltd., priority 1996, dated 1999).
